The text below walks through data of patent US20170355705A1 (GlaxoSmithKline Intellectual Property (No.2) Limited, priority 2014, published 2017).

The target in the assay is T1, SIRT1 (Homo sapiens, UniProt Q96EB6).
T1 sequence (Q96EB6 1-747): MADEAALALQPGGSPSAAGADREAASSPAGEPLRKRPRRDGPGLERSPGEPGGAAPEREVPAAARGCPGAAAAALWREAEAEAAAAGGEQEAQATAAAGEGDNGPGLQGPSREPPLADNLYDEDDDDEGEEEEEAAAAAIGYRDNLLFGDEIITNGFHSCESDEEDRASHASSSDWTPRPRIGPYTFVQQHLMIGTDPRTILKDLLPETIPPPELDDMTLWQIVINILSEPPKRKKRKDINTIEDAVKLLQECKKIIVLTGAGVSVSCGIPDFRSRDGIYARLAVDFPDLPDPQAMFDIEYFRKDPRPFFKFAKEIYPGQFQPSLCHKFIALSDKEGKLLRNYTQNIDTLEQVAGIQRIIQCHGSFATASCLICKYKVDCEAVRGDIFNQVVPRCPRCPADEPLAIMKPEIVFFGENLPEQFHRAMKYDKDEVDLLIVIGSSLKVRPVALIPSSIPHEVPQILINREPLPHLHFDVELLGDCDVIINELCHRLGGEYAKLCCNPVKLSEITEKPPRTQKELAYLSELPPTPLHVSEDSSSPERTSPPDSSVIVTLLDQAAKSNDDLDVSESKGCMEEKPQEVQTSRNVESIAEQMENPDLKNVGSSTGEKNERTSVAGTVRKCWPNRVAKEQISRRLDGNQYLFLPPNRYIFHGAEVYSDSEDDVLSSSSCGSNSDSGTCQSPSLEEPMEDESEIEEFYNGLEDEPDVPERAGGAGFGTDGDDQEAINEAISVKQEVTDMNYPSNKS
As to the kind of experiment: Trp mass spectrometry assay of SIRT1 activity (EC1.5, percent maximum activation). The class given is biochemical. Particulars: Trp mass spectrometry assay; 0.5 μM peptide substrate, 120 μM βNAD+, 10 nM SIRT1, 25 minutes at 25° C. Summed up: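 N-terminal His-tagged human SIRT1 from E. coli BL21(DE3) was incubated 25 min with a 5TMR-labelled, p53-derived Trp peptide and NAD plus varying compound concentrations, then quenched with formic acid. Mass spectrometry quantified OAADPR or deacetylated peptide versus compound-free control, giving EC1.5 and percent maximum activation.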

Take `Cc1ccc(-c2ccc3c(n2)N(C(=O)Nc2ccnc(O[C@H]4CCOC4)n2)[C@H]2CCN3C2)cn1` [Example 227, (4S)-7-(6-methylpyridin-3-yl)-N-(2-(((S)-tetrahydrofuran-3-yl)oxy)pyrimidin-4-yl)-3,4-dihydro-1,4-methanopyrido[2,3-b][1,4]diazepine-5(2H)-carboxamide]: the “TRP Activity (EC1.5, concentration of test compound that results in 150% activation of SIRT1)” value was “B (EC1.5 1-25 μM)” and the “TRP MAX RESP (percent maximum fold activation)” value was “A (Fold activation ≧150%)”.

Consider `Cc1cc(-c2ccc3c(n2)N(C(=O)N2CCO[C@H](C)C2)[C@H]2CCN3C2)ccn1.Cl` [Example 232, ((R)-2-methylmorpholino)((4S)-7-(2-methylpyridin-4-yl)-3,4-dihydro-1,4-methanopyrido[2,3-b][1,4]diazepin-5(2H)-yl)methanone hydrochloride], for which the “TRP Activity (EC1.5, concentration of test compound that results in 150% activation of SIRT1)” value is “C (EC1.5>25 μM)” and the “TRP MAX RESP (percent maximum fold activation)” value is “B (Fold Activation <150%)”.

Regarding `Cn1ccc(-c2ccc3c(n2)N(C(=O)Nc2cccnc2)[C@H]2CCN3C2)cc1=O` [Example 233, (4S)-7-(1-methyl-2-oxo-1,2-dihydropyridin-4-yl)-N-(pyridin-3-yl)-3,4-dihydro-1,4-methanopyrido[2,3-b][1,4]diazepine-5(2H)-carboxamide], the “TRP Activity (EC1.5, concentration of test compound that results in 150% activation of SIRT1)” value was “B (EC1.5 1-25 μM)” and the “TRP MAX RESP (percent maximum fold activation)” value is given as “A (Fold activation ≧150%)”.

For `Cc1cc(-c2ccc3c(n2)N(C(=O)N2CCO[C@@H](C)C2)[C@H]2CCN3C2)ccn1.Cl` [Example 234, ((S)-2-methylmorpholino)((4S)-7-(2-methylpyridin-4-yl)-3,4-dihydro-1,4-methanopyrido[2,3-b][1,4]diazepin-5(2H)-yl)methanone hydrochloride], the “TRP Activity (EC1.5, concentration of test compound that results in 150% activation of SIRT1)” value is “C (EC1.5>25 μM)” and the “TRP MAX RESP (percent maximum fold activation)” value is reported as “B (Fold Activation <150%)”.

For the compound `Cc1cc(NC(=O)N2c3nc(-c4ccnc(C)c4)ccc3N3CC[C@H]2C3)ccn1` [Example 235, (4S)-N-7-bis(2-methylpyridin-4-yl)-3,4-dihydro-1,4-methanopyrido[2,3-b][1,4]diazepine-5(2H)-carboxamide], the “TRP Activity (EC1.5, concentration of test compound that results in 150% activation of SIRT1)” value is on record as “B (EC1.5 1-25 μM)” and the “TRP MAX RESP (percent maximum fold activation)” value is given as “A (Fold activation ≧150%)”.

Regarding `Cc1cc(C)c(-c2ccc3c(n2)N(C(=O)Nc2cccnc2)[C@H]2CCN3C2)cn1` [Example 236, (4S)-7-(4,6-dimethylpyridin-3-yl)-N-(pyridin-3-yl)-3,4-dihydro-1,4-methano pyrido[2,3-b][1,4]diazepine-5(2H)-carboxamide], the “TRP Activity (EC1.5, concentration of test compound that results in 150% activation of SIRT1)” value is recorded as “B (EC1.5 1-25 μM)” and the “TRP MAX RESP (percent maximum fold activation)” value is “A (Fold activation ≧150%)”.

In the case of `Cc1ccc(-c2ccc3c(n2)N(C(=O)NCC(C)(C)C)[C@H]2CCN3C2)cn1` [Example 237, (4S)-7-(6-methylpyridin-3-yl)-N-neopentyl-3,4-dihydro-1,4-methanopyrido[2,3-b][1,4]diazepine-5(2H)-carboxamide], the “TRP Activity (EC1.5, concentration of test compound that results in 150% activation of SIRT1)” value is on record as “C (EC1.5>25 μM)” and the “TRP MAX RESP (percent maximum fold activation)” value is “B (Fold Activation <150%)”.

For `Cc1ccc(-c2ccc3c(n2)N(C(=O)Nc2cncc(C)n2)[C@H]2CCN3C2)cn1` [Example 238, (4S)-N-(6-methylpyrazin-2-yl)-7-(6-methylpyridin-3-yl)-3,4-dihydro-1,4-methanopyrido[2,3-b][1,4]diazepine-5(2H)-carboxamide], the “TRP Activity (EC1.5, concentration of test compound that results in 150% activation of SIRT1)” value is “B (EC1.5 1-25 μM)” and the “TRP MAX RESP (percent maximum fold activation)” value is given as “A (Fold activation ≧150%)”.

As to `N#Cc1ccc(-c2ccc3c(n2)N(C(=O)Nc2cccnc2)[C@H]2CCN3C2)cn1` [Example 245], the “TRP MAX RESP (percent maximum fold activation)” value is “A (Fold activation ≧150%)”.

Consider `CC(C)n1cc(-c2ccc3c(n2)N(C(=O)Nc2cnccn2)[C@H]2CCN3C2)cn1` [Example 252], for which the “TRP MAX RESP (percent maximum fold activation)” value is “A (Fold activation ≧150%)”.
